System: iCTCs from pancreatic cancer patients
Assay: iCTC drug response (CDR) testing ex vivo, Project 1 Study-Pancreatic Cancer
Type: cell-based, human
Details: for number of live iCTCs remaining after treatment: 72 hours
Procedure: Materials for Project 1 Study-Pancreatic Cancer • Blood collection tubes: BD Vacutainer® 10 mL sodium heparin tube (BD catalog #367874)). • Vita-Assay™ AN6W plate. • Blood: pancreatic cancer, up to 40-mL blood collected from patients and provided by Conversant Bio. • Stock solution and dilutions • Monolaurin 4.78 mM with 0.75% PS-80 (Stock Solution C), 13.1 mg monolaurin in 0.25 mL PS-80 and 0.75 mL water and 0.1 mL of this solution was diluted with 0.9 mL of RPMI. Stocks are stable for 2 weeks at 4 degrees C. Monolaurin used is an equal mixture of 1-, 2-, and 3-isomers of monolaurin. • Monolaurin dilution: add 209.2 uL, 627.6 uL, and 1.2552 mL of monolaurin in 0.75% PS-80 (Stock solution C), and dilute to 10 mL of media to achieve final concentrations of 100 uM, 200 uM, 300 uM as indicated.
With respect to FIG. 1, a depiction of a generalized experimental scheme for testing efficacy of a composition in accordance with an exemplary embodiment of the present invention against iCTC from the blood of pancreatic cancer patients is shown. Invasive circulating tumor cells (iCTCs) were obtained from venous blood of the individual with advanced pancreatic cancer, cultured and exposed to a specific drug or battery of drugs at 1×, 2×, and 3× concentrations in vitro for 3 days. Drug responsiveness was measured by automatic flow cytometry using the reduction of live iCTCs in the treated samples from the number of live iCTCs in the untreated controls. The greater the reduction of iCTCs of a given drug at a given dose indicates greater responsiveness to that dose of the drug. Four AN6W plates were used for each sample. Control and drug at each dose in triplicate were incubated for 72 hours. The iCTCs were measured by flow cytometry and viewed by microscopy as described. The complete culture medium contains 10% fetal bovine serum.
The complete experimental procedure for Project 1 Study-Pancreatic Cancer, with reference to FIG. 1, is as follows:
1. Blood collection: up to 40-mL of blood was collected in several sodium heparin tubes from each patient.
2. Plasma collection: The patient sample tubes were pooled into a clean 50-mL conical tube and spun at 1,500 rpm for 8 mins at room temperature to separate plasma from blood cells. 3-4 mL of plasma were then collected into a clean 4.5-mL cell-frozen vial (up to 4 vials per patient), a labeled attached and the plasma stored at −80° C. freezer for use. 3. Calculated 50-mL tubes required for lysis of red blood cells: original blood volume. i.e., 36-mL,/2-mL=18. 4. Aliquotted 1/18 the remaining cell fraction into 18 new 50-mL tubes. 5. Red cell lysis: Added 48-mL of 1× red cell lysis buffer into each 50-mL tube to lyse red cells. Tubes placed on a roller mixer at 20-25° C. for 5 min. Cells spun down using low speed centrifugation (1,000 rpm). 6. iCTCs were captured using AN6W plate with or without drug treatment. 7. Drug treatment: Add 1-mL of CTC Capture Medium (standard culture medium containing 10% serum) with or without drugs (3× strength) to each 2-mL of the cell suspension in one well of the AN6W plate. 8. Cell culture: Culture cells in a 5% CO2 incubator at 37° C. for overnight, 72 hours, and 7 days. 9. CAM-enzyme elution of CAM-captured cells: Wells will be washed twice using 2-mL of 1×PBS. Add 0.8-mL of the activated CAM enzyme working solution into the well, and place at 37° C. for 15 min. Transfer cell suspension into a 15-mL conical centrifuge tube. Wash well by pipetting 2-mL of 1×PBS into the well and collect/transfer wash solution into the pool cell suspension. CAM-captured tumor cells will be collected using low speed centrifugation (1,000 rpm) of the conical tube. 10. Preparation of the cells for flow cytometry: Fix the cells by using 1×BD cell fixing buffer and keep at room temperature for 5 min. Add 3-mL of 1×PBS (containing 0.2% BSA buffer), spin down cells and remove the supernatant. 11. […]

CCCCCCCCCCCC(=O)OCC(O)CO (stereo not shown) [Monolaurin, glycerol monolaurate]
kill rates of iCTCs (summary) (iCTCs from pancreatic cancer patients): high kill rates | number of live iCTCs remaining after treatment (patient RP01 (Folfirinox), iCTC control 550, 100 uM monolaurin): 50 | number of live iCTCs remaining after treatment (patient RP01 (Folfirinox), iCTC control 550, 200 uM monolaurin): 0 | number of live iCTCs remaining after treatment (patient RP01 (Folfirinox), iCTC control 550, 300 uM monolaurin): 0 | number of live iCTCs remaining after treatment (patient RP03 (Folfirinox), iCTC control 23, 100 uM monolaurin): 10 | number of live iCTCs remaining after treatment (patient RP03 (Folfirinox), iCTC control 23, 200 uM monolaurin): 0 | number of live iCTCs remaining after treatment (patient RP03 (Folfirinox), iCTC control 23, 300 uM monolaurin): 0 | number of live iCTCs remaining after treatment (patient RP04 (Folfirinox), iCTC control 30, 100 uM monolaurin): 0 | number of live iCTCs remaining after treatment (patient RP04 (Folfirinox), iCTC control 30, 200 uM monolaurin): 0 | number of live iCTCs remaining after treatment (patient RP04 (Folfirinox), iCTC control 30, 300 uM monolaurin): 0 | number of live iCTCs remaining after treatment (patient RP10 (Folfirinox), iCTC control 100, 100 uM monolaurin): 10 | number of live iCTCs remaining after treatment (patient RP10 (Folfirinox), iCTC control 100, 200 uM monolaurin): 0 | number of live iCTCs remaining after treatment (patient RP10 (Folfirinox), iCTC control 100, 300 uM monolaurin): 0 | number of live iCTCs remaining after treatment (patient RP11 (Folfirinox), iCTC control 40, 100 uM monolaurin): 10 | number of live iCTCs remaining after treatment (patient RP11 (Folfirinox), iCTC control 40, 200 uM monolaurin): 10 | number of live iCTCs remaining after treatment (patient RP11 (Folfirinox), iCTC control 40, 300 uM monolaurin): 10 | number of live iCTCs remaining after treatment (patient RP12 (Folfirinox), iCTC control 30, 100 uM monolaurin): 20 | number of live iCTCs remaining after treatment (patient RP12 (Folfirinox), iCTC control 30, 200 uM monolaurin): 0 | number of live iCTCs remaining after treatment (patient RP12 (Folfirinox), iCTC control 30, 300 uM monolaurin): 0 | number of live iCTCs remaining after treatment (patient RP16 (Folfirinox), iCTC control 30, 100 uM monolaurin): 0 | number of live iCTCs remaining after treatment (patient RP16 (Folfirinox), iCTC control 30, 200 uM monolaurin): 0 | number of live iCTCs remaining after treatment (patient RP16 (Folfirinox), iCTC control 30, 300 uM monolaurin): 0 | number of live iCTCs remaining after treatment (patient RP17 (Gemzar), iCTC control 50, 100 uM monolaurin): 0 | number of live iCTCs remaining after treatment (patient RP17 (Gemzar), iCTC control 50, 200 uM monolaurin): 0 | number of live iCTCs remaining after treatment (patient RP17 (Gemzar), iCTC control 50, 300 uM monolaurin): 0 | number of live iCTCs remaining after treatment (patient RP18 (Gemzar/Abraxane), iCTC control 175, 100 uM monolaurin): 0 | number of live iCTCs remaining after treatment (patient RP18 (Gemzar/Abraxane), iCTC control 175, 200 uM monolaurin): 0 | number of live iCTCs remaining after treatment (patient RP18 (Gemzar/Abraxane), iCTC control 175, 300 uM monolaurin): 0 | number of live iCTCs remaining after treatment (patient RP22 (Keytruda), iCTC control 45, 100 uM monolaurin): 0 | number of live iCTCs remaining after treatment (patient RP22 (Keytruda), iCTC control 45, 200 uM monolaurin): 0 | number of live iCTCs remaining after treatment (patient RP22 (Keytruda), iCTC control 45, 300 uM monolaurin): 0 | number of live iCTCs remaining after treatment (patient RP′14 (Folfirinox), iCTC control 40, 100 uM monolaurin): 20 | number of live iCTCs remaining after treatment (patient RP′14 (Folfirinox), iCTC control 40, 200 uM monolaurin): 15 | number of live iCTCs remaining after treatment (patient RP′14 (Folfirinox), iCTC control 40, 300 uM monolaurin): 10

Source: patent US11497761B2, “Compositions for the treatment of metastatic cancer” (priority 2019, dated 2022)
